Measured values from a compilation of properties of binary mixtures (doi:10.1016/j.jct.2011.12.003).

Assay: xn = mol fraction of the nth substance listed
Conditions: 101 kPa

CCCCCCO + CCCCCCCC[n+]1ccc2ccccc2c1.O=S(=O)([N-]S(=O)(=O)C(F)(F)F)C(F)(F)F
x1 = 1
Conditions | viscosity [mPa·s]
298.15 K | 4.48
308.15 K | 3.34
318.15 K | 2.54
338.15 K | 1.56

CCCCO + CCCCCCCC[n+]1ccc2ccccc2c1.O=S(=O)([N-]S(=O)(=O)C(F)(F)F)C(F)(F)F
x1 = 1
Conditions | viscosity [mPa·s]
298.15 K | 2.54
308.15 K | 1.98
318.15 K | 1.57
328.15 K | 1.26
338.15 K | 1.03

OCCc1ccccc1 + CCCCCCCC[n+]1ccc2ccccc2c1.O=S(=O)([N-]S(=O)(=O)C(F)(F)F)C(F)(F)F
x1 = 1
Conditions | viscosity [mPa·s]
298.15 K | 10.9
308.15 K | 7.19
318.15 K | 4.98
328.15 K | 3.64
338.15 K | 2.77

CCCCCCCC[n+]1ccc2ccccc2c1.O=S(=O)([N-]S(=O)(=O)C(F)(F)F)C(F)(F)F + CCCCCCO
viscosity [mPa·s]
Conditions | x2 = 0 | x2 = 0.0854 | x2 = 0.2857 | x2 = 0.3673 | x2 = 0.4981 | x2 = 0.5825 | x2 = 0.6854 | x2 = 0.7913
298.15 K | 369 | 287.4 | 136.9 | 95.1 | 58.56 | 42.65 | 28.18 | 17.78
308.15 K | 191 | 153.3 | 78.6 | 56.09 | 35.72 | 26.62 | 18.08 | 11.64
318.15 K | 108.7 | 89.2 | – | 35.66 | 23.49 | 17.79 | 12.37 | 8.11
328.15 K | 67.9 | 56.19 | 32.57 | 24.14 | 16.33 | 12.59 | 8.87 | 5.88
338.15 K | 44.8 | 37.54 | 22.77 | 17.2 | 11.88 | 9.24 | – | 4.44

CCCCCCCC[n+]1ccc2ccccc2c1.O=S(=O)([N-]S(=O)(=O)C(F)(F)F)C(F)(F)F + CCCCO
viscosity [mPa·s]
Conditions | x2 = 0 | x2 = 0.0865 | x2 = 0.1708 | x2 = 0.3134 | x2 = 0.4036 | x2 = 0.5032 | x2 = 0.6067 | x2 = 0.6915 | x2 = 0.7937 | x2 = 0.9314
298.15 K | 369 | 276 | 205 | – | 84.3 | – | 33.87 | 22.84 | 12.59 | 6.1
308.15 K | 191 | 151.2 | 115.2 | – | 51.64 | 34.34 | 21.89 | – | 8.77 | 4.39
318.15 K | 108.7 | 89.2 | 69.5 | 44.66 | 32.98 | 22.81 | 15.04 | 10.61 | – | 3.32
328.15 K | 67.9 | 56.1 | – | 29.85 | 22.59 | 16.01 | 10.88 | 7.77 | 4.72 | 2.58
338.15 K | 44.88 | 37.87 | 31.27 | – | 16.68 | 11.78 | 8.15 | – | – | 2.06

CCCCCCCC[n+]1ccc2ccccc2c1.O=S(=O)([N-]S(=O)(=O)C(F)(F)F)C(F)(F)F + OCCc1ccccc1
viscosity [mPa·s]
Conditions | x2 = 0 | x2 = 0.0851 | x2 = 0.1985 | x2 = 0.3101 | x2 = 0.3748 | x2 = 0.4969 | x2 = 0.5766 | x2 = 0.695 | x2 = 0.8076 | x2 = 0.8956
298.15 K | 369 | 305 | 219 | 153.5 | 126.8 | 79.7 | – | 40.23 | 26.6 | –
308.15 K | 191 | 161.9 | 119.7 | 86.7 | 72.7 | 47.31 | 36.67 | – | 16.96 | 12.09
318.15 K | 108.7 | 93.8 | – | 53.23 | – | 30.33 | – | 16.64 | 11.53 | 8.35
328.15 K | 67.9 | – | 45.88 | 35.03 | – | 20.59 | – | – | 8.23 | 5.99
338.15 K | 44.8 | – | 31.17 | 24.37 | – | 14.79 | 12.01 | – | 6.09 | 4.45
